In general, IC50 refers to the concentration that inhibits the measured activity by half.

The text below walks through data of patent publication US8293736B2, “Purine compounds selective for PI3K P110 delta, and methods of use” (F. Hoffmann la Roche AG, priority 2010, dated 2012).

In one assay the target is T1, p110 delta (Homo sapiens, UniProt O00329).
T1 construct: purchased Upstate Group, Millipore; Dundee, UK
In words: PI3K isoform inhibition assay (fluorescence polarization), p110 delta. To be noted: Ki apparent, Morrison equation; 25 μM ATP, 10 μM PIP2. Type of assay: biochemical. The protocol: (§1) Determination of the activity of PI3 kinase activity of Formula I compounds is possible by a number of direct and indirect detection methods.
(§2) PI3K enzymatic activity was assayed by measuring the amount of product phosphatidylinositol 3,4,5-phosphate (PIP3) formed from substrate 4,5 phosphatidylinositol 4,5-phosphate (PIP2) using a fluorescence polarization displacement assay. The decrease in fluorescence polarization of a fluorescent PIP3 probe is measured as it is displaced from a PIP3-binding protein GRP-1 detector by PI3K-catalyzed product. […] The kinase reactions were initiated by the addition of 40 ng/mL p110α/p85α, 300 ng/mL p110β/p85α, 40 ng/mL p110γ, or 40 ng/mL p110δ/p85α (Upstate Group, Millipore; Dundee, UK), and 10 μM PIP2 (Echelon Biosciences) to the wells. […] After 60 minutes of incubation at room temperature to allow equilibration of labeled and unlabeled PIP3 binding, the parallel and perpendicular components of the fluorescence emissions from each sample were measured at an excitation wavelength of 530 nm and an emission wavelength of 590 nm using an Envision fluorescent plate reader with a rhodamine filter (PerkinElmer Life and Analytical Sciences; Wellesley, Mass.). The assay is capable of detecting 0.1-2.0 μM PIP3 product. The Ki apparent values were obtained by fitting the dose-dependent inhibition data to the Morrison equation for tight-binding, competitive inhibitors. Reference: R. A. Copeland, Enzymes. “A Practical Introduction to Structure, Mechanism and Data Analysis”.
The Formula I compound was serially diluted in 100% DMSO. The kinase reaction was incubated for 1 h at room temperature, and the reaction was terminated by the addition of PBS. IC50 values were subsequently determined using sigmoidal dose-response curve fit (variable slope). […]

Assay [1] concerns production of CD69 by B lymphocytes in human whole blood. In words: CD69 Whole Blood Assay. Type of assay: cell-based. Particulars: Lymphocyte; human whole blood activated with goat F(ab')2 anti-human IgM, 20 hours. From the text: There is good evidence that B-cells play a key role in the pathogenesis of autoimmune and/or inflammatory disease. Protein-based therapeutics that deplete B cells such as Rituxan are effective against autoantibody-driven inflammatory diseases such as rheumatoid arthritis (Rastetter et al. (2004) Annu Rev Med 55:477). CD69 is the early activation marker in leukocytes including T cells, thymocytes, B cells, NK cells, neutrophils, and eosinophils. The CD69 human whole blood assay (Example 903) determines the ability of compounds to inhibit the production of CD69 by B lymphocytes in human whole blood activated by crosslinking surface IgM with goat F(ab′)2 anti-human IgM.
Human blood is obtained from healthy volunteers, with the following restrictions: 1 week drug-free, non-smokers. Blood (approximately 20 mls to test 8 compounds) is collected by venipuncture into Vacutainer tubes with sodium heparin.
Solutions of Formula I compounds at 1000 or 2000 μM in PBS (20×), are diluted by three-fold serial dilutions in 10% DMSO in PBS for a nine point dose-response curve. An aliquot of 5.5 μl of each compound is added in duplicate to a 2 ml 96-well plate; 5.5 μl of 10% DMSO in PBS is added as control and no-stimulus wells. Human whole blood—HWB (100 μl) is added to each well. After mixing the plates are incubated at 37° C., 5% CO2, 100% humidity for 30 minutes. Goat F(ab′)2 anti-human IgM (10 μl of a 500 μg/ml solution, 50 μg/ml final) is added to each well (except the no-stimulus wells) with mixing and the plates are incubated for an additional 20 hours. At the end of the 20 hour incubation, samples are incubated with fluorescent labeled antibodies for 30 minutes, at 37° C., 5% CO2, 100% humidity. Include induced control, unstained and single stains for compensation adjustments and initial voltage settings. Samples are then lysed with Pharmingen Lyse™ according to the manufacturer's instructions. Samples are then transferred to a 96 well plate suitable to be run on the AMS 96 well system on the BD Calibur FACS cell sorter instrument. Data acquired and Mean Fluorescence Intensity values were obtained using Cell Quest Software. Results are initially analyzed by FACS analysis software (Flow Jo). The IC50 values are calculated by ActivityBase™ using Xlfit™ version 3, equation 201.

The next assay deals with T2, p110 alpha (Homo sapiens, UniProt P42336).
T2 construct: purchased Upstate Group, Millipore; Dundee, UK
T2 sequence (P42336 whole entry, species assumed): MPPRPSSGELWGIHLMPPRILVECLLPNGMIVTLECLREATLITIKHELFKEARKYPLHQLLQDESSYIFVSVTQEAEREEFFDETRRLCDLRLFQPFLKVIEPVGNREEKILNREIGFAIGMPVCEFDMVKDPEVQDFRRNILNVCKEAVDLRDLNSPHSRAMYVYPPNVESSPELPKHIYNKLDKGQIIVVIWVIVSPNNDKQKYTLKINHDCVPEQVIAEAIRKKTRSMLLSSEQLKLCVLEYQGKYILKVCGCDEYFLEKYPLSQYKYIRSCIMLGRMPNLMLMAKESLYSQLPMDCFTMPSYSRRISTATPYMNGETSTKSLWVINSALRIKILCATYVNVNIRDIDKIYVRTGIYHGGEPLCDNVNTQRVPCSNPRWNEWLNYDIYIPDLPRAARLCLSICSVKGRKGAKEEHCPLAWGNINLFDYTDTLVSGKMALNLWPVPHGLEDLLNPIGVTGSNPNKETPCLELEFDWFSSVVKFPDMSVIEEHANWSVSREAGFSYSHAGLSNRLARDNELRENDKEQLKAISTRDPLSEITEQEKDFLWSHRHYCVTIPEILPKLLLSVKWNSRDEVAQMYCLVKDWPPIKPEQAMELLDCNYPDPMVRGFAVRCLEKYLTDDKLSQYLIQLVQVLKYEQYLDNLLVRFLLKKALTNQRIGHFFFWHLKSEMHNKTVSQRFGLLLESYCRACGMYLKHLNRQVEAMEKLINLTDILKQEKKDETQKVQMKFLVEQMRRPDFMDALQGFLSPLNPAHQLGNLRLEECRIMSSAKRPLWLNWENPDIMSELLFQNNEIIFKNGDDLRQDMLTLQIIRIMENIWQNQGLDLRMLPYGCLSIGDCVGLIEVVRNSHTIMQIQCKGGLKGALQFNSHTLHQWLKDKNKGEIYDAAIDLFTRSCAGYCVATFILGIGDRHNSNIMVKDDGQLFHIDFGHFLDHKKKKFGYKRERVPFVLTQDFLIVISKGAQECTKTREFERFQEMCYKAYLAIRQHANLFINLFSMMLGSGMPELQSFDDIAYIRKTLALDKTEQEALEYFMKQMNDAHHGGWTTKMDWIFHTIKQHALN
T2 sequence (P27986 whole entry partner, species assumed): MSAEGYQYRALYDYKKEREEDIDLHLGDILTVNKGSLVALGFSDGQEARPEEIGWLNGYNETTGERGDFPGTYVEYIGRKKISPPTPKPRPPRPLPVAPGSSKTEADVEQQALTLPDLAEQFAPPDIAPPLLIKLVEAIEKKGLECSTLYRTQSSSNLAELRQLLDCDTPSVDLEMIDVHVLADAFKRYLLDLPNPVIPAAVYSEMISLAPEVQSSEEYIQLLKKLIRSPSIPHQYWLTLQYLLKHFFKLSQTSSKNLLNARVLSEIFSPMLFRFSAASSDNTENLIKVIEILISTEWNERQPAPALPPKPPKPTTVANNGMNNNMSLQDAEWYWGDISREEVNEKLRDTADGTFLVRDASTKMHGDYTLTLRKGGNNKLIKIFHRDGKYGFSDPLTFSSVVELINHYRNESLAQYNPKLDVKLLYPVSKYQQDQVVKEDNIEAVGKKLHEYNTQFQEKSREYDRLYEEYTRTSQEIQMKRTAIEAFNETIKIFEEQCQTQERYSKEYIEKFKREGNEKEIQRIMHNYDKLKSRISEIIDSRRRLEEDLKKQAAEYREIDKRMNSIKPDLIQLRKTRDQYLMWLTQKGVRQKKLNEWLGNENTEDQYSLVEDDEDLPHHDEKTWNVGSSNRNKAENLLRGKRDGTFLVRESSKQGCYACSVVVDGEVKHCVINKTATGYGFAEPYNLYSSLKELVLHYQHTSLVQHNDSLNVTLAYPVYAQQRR
In words: PI3K isoform inhibition assay (fluorescence polarization), p110 alpha. Type of assay: biochemical. To be noted: delta/alpha selectivity ratio. The protocol:
as §1, §2
The same protocol may be used to establish Ki values for p110α (alpha) PI3K binding.
The four Class I PI 3-kinases are cloned into baculovirus vectors as follows: […]
(Fluorescence polarisation rises when a labelled molecule tumbles more slowly, as on binding a larger partner.)

T1 sequence (O00329 whole entry): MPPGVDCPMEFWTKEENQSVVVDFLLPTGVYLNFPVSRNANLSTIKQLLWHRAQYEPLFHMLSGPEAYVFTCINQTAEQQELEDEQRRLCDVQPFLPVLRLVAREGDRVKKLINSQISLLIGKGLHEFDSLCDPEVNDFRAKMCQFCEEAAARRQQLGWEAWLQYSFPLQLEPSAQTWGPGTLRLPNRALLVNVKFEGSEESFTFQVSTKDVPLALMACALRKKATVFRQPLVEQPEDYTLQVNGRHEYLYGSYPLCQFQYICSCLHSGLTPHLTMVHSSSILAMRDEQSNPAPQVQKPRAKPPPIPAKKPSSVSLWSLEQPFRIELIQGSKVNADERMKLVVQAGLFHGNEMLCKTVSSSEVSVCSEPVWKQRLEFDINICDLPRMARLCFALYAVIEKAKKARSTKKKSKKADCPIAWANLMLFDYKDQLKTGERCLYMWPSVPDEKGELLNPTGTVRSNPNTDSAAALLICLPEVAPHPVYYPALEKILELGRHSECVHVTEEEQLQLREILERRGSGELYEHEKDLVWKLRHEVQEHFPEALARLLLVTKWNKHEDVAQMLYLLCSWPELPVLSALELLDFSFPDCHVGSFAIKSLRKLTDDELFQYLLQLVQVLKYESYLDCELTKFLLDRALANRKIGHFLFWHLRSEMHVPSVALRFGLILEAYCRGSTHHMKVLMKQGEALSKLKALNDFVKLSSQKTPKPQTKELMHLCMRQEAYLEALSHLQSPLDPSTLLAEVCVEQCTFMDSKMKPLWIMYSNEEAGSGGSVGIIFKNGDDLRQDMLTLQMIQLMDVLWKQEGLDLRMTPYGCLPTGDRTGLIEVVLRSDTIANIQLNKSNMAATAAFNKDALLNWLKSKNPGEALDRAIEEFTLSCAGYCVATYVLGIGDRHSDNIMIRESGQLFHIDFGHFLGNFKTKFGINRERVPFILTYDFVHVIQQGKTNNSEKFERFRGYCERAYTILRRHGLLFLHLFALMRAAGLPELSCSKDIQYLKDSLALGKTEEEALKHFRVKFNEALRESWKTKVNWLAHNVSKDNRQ
T1 sequence (P27986 whole entry partner): as the sequence (P27986 whole entry partner, species assumed) above

With `CCc1nc2ccccc2n1-c1nc(N2CCOCC2)c2nc(OC3CN(C(=O)C(C)C)C3)[nH]c2n1` [Compound 128, 1-(3-(2-(2-ethyl-1H-benzo[d]imidazol-1-yl)-6-morpholino-9H-purin-8-yloxy)azetidin-1-yl)-2-methylpropan-1-one], the Ki on p110 delta amounted to 0.629 nM. Besides, half-maximal inhibition in assay [1] (IC50) required 15.9 nM. Besides, the “Ki p110 alpha/ Ki p110 delta” value on p110 alpha turned out to be 141.
On the same counts, the results for `CC(C)C(=O)N1CC(Oc2nc3c(N4CCOCC4)nc(-n4c(C(C)C)nc5ccccc54)nc3n2C)C1` [Compound 107, 1-(3-(2-(2-isopropyl-1H-benzo[d]imidazol-1-yl)-9-methyl-6-morpholino-9H-purin-8-yloxy)azetidin-1-yl)-2-methylpropan-1-one] are 0.38 nM, 8.3 nM and 173.
On to `CC(C)c1nc2ccccc2n1-c1nc(N2CCOCC2)c2nc(OC3CN(CC(C)(C)O)C3)n(C)c2n1` [Compound 105, 1-(3-(2-(2-isopropyl-1H-benzo[d]imidazol-1-yl)-9-methyl-6-morpholino-9H-purin-8-yloxy)azetidin-1-yl)-2-methylpropan-2-ol], for which, at p110 delta, the Ki worked out at 2.03 nM. This molecule showed an IC50 in assay [1] of 28.1 nM. At p110 alpha, the “Ki p110 alpha/ Ki p110 delta” value is reported as 93.
With `CC(C)c1nc2ccccc2n1-c1nc(N2CCOCC2)c2nc(OC3CN(C4CCS(=O)(=O)CC4)C3)n(C)c2n1` [Compound 103, 4-(2-(2-isopropyl-1H-benzo[d]imidazol-1-yl)-9-methyl-8-(1-(1,1-dioxo-tetrahydro-2H-thiopyran-4-yl)azetidin-3-yloxy)-9H-purin-6-yl)morpholine], at p110 delta, the Ki turned out to be 0.464 nM. Further, the IC50 in assay [1] turned out to be 3 nM. In addition, the “Ki p110 alpha/ Ki p110 delta” value at p110 alpha stood at 256.
The corresponding values for `CCc1nc2ccccc2n1-c1nc(N2CCOCC2)c2nc(OC3CNC3)n(C)c2n1` [Compound 133, 4-(8-(azetidin-3-yloxy)-2-(2-ethyl-1H-benzo[d]imidazol-1-yl)-9-methyl-9H-purin-6-yl)morpholine] are 8.53 nM, 10.8 nM and 27.
With `CC(C)C(=O)N1CC(Oc2nc3c(N4CCOCC4)nc(-n4c(N(C)C)nc5ccccc54)nc3n2C)C1` [Compound 131, 1-(3-(2-(2-(dimethylamino)-1H-benzo[d]imidazol-1-yl)-9-methyl-6-morpholino-9H-purin-8-yloxy)azetidin-1-yl)-2-methylpropan-1-one], the Ki at p110 delta worked out at 3.65 nM. The molecule also returned an IC50 in assay [1] of 14.6 nM. Moreover, on p110 alpha, the “Ki p110 alpha/ Ki p110 delta” value amounted to 180.
Take `CCc1nc2ccccc2n1-c1nc(N2CCOCC2)c2nc(OC3CCN(C4CCOCC4)CC3)n(C)c2n1` [Compound 101, 4-(2-(2-ethyl-1H-benzo[d]imidazol-1-yl)-9-methyl-8-(1-(tetrahydro-2H-pyran-4-yl)piperidin-4-yloxy)-9H-purin-6-yl)morpholine]: at p110 delta, the Ki amounted to 1.84 nM. In addition, half-maximal inhibition in assay [1] (IC50) was put at 35.4 nM. Also, the “Ki p110 alpha/ Ki p110 delta” value on p110 alpha turned out to be 78.
`CCc1nc2ccccc2n1-c1nc(N2CCOCC2)c2nc(OC3CN(C(=O)C4CC4)C3C)n(C)c2n1` (centres unmarked) [Compound 148, cyclopropyl(3-(2-(2-ethyl-1H-benzo[d]imidazol-1-yl)-9-methyl-6-morpholino-9H-purin-8-yloxy)-2-methylazetidin-1-yl)methanone]: on p110 delta, the Ki came to 0.34 nM. Besides, the “Ki p110 alpha/ Ki p110 delta” value at p110 alpha is listed as 259.
The corresponding values for `CCc1nc2ccccc2n1-c1nc(N2CCOCC2)c2nc(OC3CCN(C(=O)C(C)(C)O)CC3)n(C)c2n1` [Compound 112, 1-(4-(2-(2-ethyl-1H-benzo[d]imidazol-1-yl)-9-methyl-6-morpholino-9H-purin-8-yloxy)piperidin-1-yl)-2-hydroxy-2-methylpropan-1-one] are 1.4 nM and 122.
On the same counts, the results for `CCc1nc2ccccc2n1-c1nc(N2CCOCC2)c2nc(OC3CCN(C4COC4)CC3)n(C)c2n1` [Compound 109, 4-(2-(2-ethyl-1H-benzo[d]imidazol-1-yl)-9-methyl-8-(1-(oxetan-3-yl)piperidin-4-yloxy)-9H-purin-6-yl)morpholine] are 1.15 nM and 32.2.
The corresponding values for `CCc1nc2ccccc2n1-c1nc(N2CCOCC2)c2nc(OC3CCN(C(=O)C(C)C)CC3)n(C)c2n1` [Compound 108, 1-(4-(2-(2-ethyl-1H-benzo[d]imidazol-1-yl)-9-methyl-6-morpholino-9H-purin-8-yloxy)piperidin-1-yl)-2-methylpropan-1-one] are 0.494 nM and 177.
As for `CCc1nc2ccccc2n1-c1nc(N2CCOCC2)c2nc(OC3CN(C(=O)C(C)(C)F)C3)n(C)c2n1` [Compound 147, 1-(3-(2-(2-ethyl-1H-benzo[d]imidazol-1-yl)-9-methyl-6-morpholino-9H-purin-8-yloxy)azetidin-1-yl)-2-fluoro-2-methylpropan-1-one], the Ki at p110 delta came to 2.33 nM. The “Ki p110 alpha/ Ki p110 delta” value at p110 alpha is listed as 72.
For the molecule `CCc1nc2ccccc2n1-c1nc(N2CCOCC2)c2nc(OC3CN(C(=O)[C@H](C)O)C3)n(C)c2n1` [Compound 129, (S)-1-(3-(2-(2-ethyl-1H-benzo[d]imidazol-1-yl)-9-methyl-6-morpholino-9H-purin-8-yloxy)azetidin-1-yl)-2-hydroxypropan-1-one], the Ki at p110 delta stood at 1.42 nM. The “Ki p110 alpha/ Ki p110 delta” value at p110 alpha was found to be 87.
On the same counts, the results for `CCc1nc2ccccc2n1-c1nc(N2CCOCC2)c2nc(OC3CCN(C(C)=O)CC3)n(C)c2n1` [Compound 102, 1-(4-(2-(2-ethyl-1H-benzo[d]imidazol-1-yl)-9-methyl-6-morpholino-9H-purin-8-yloxy)piperidin-1-yl)ethanone] are 1.02 nM and 81.
